In patent publication US20240252486A1, “ALGOSTATIC AGENTS FOR PREVENTING TRANSITION FROM ACUTE TO CHRONIC PAIN” (The Regents of the University of California, priority 2021, published 2024):

How the values were obtained:
formalin-injected mice [1] = assay: Formalin-induced chronic pain-like state (CPLS): persistent hypersensitivity to heat and mechanical stimuli; format: in vivo, mouse
formalin-injected mice [2] = assay: Formalin-induced paw edema; format: in vivo, mouse
Protocol: Paw edema was measured with a digital caliper (Fisher Scientific, USA) and is expressed as the difference (A paw thickness, mm) between ipsilateral and contralateral paws.

formalin-injected mice [3] = assay: 24-h novel object recognition test (long-term memory) after formalin; format: in vivo, mouse; conditions: ARN19702 30 mg-kg^−1 IP once daily for 3 days starting 24 h after formalin; PFD14
Protocol: The test was conducted over 3 days.
The test was conducted over 3 days. […] The discriminatory index was calculated as follows: […]

[4] = Body-weight gain after formalin; format: in vivo, mouse; conditions: ARN19702 30 mg-kg^−1 IP once daily for 3 days starting 24 h after formalin; PFD14
formalin-injected mice [5] = assay: Ex vivo diffusion tensor imaging of spinal cord and forebrain; format: in vivo, mouse; conditions: ARN19702 30 mg-kg^−1 IP once daily for 3 days starting 24 h after formalin; PFD14
Protocol: Magnetic Resonance Imaging (MRI) acquisition: Mice were anesthetized, flushed intracardially with ice-cold PBS and then with 4% PAF in PBS (pH 7.4). Brains and spinal cords were removed within their osseous structures and post-fixed overnight in 4% PAF, followed by three 5-min washes with PBS the next day, and stored in PBS (pH 7.4) containing sodium azide (0.02%, weight) at 4 °C. Ex vivo diffusion tensor imaging (DTI) and T2 weighted imaging ([…]) studies were performed using a 9.4 T Bruker Avance imager (Bruker Biospin, Billerica, USA). Data were acquired with the following parameters: 1.5 cm field of view, 0.5 mm slice thickness, and a 128×128 acquisition matrix and zero filled to 256×256. DTI parameters were as follows: repetition time (TR)/echo time (TE)=8000 ms/35.66 ms, 30 isolinear directions, B=[…], and 5 B0 images acquired prior to weighted images. […] parameters were TR/TE=4000/10 ms with 10 equally spaced echoes. Brain: We used 3D automatic registration for unbiased region parcellation to analyze DTI metrics in brain structures. Scans underwent eddy current correction and brain was digitally removed from surrounding skull and muscles using 3D Pulse-Coupled Neural Networks (PCNN3D v1.2) in MATLAB R2017a (MathWorks). […] The resultant maps were then analyzed in DSI studio (http://dsi-studio.labsolver.org). […]

[6] = tested on: PEA levels in ipsilateral lumbar spinal cord (L4-L6); assay: PEA quantification in lumbar spinal cord (LC/MS-MS); format: in vivo, mouse; conditions: post-formalin ARN19702 30 mg-kg^−1 IP on PFD2-4; 2 h after administration
Protocol: Lipid extraction: Lumbar L4-L6 spinal cord fragments (˜15 mg each) were transferred into 2 ml Precellys® soft tissue tubes (Bertin Instruments, France) and diluted with ice-cold acetone (1 ml) containing [2H4]-PEA (50 μl, 100 nM) Samples were homogenized at 4° C., 6000 rpm, 15 s/cycle for 2 cycles with 20 s pause in between cycles. Supernatants were transferred into 8-ml glass vials and dried under nitrogen. Chloroform/methanol (2/1, vol, 3 ml) and water (1 ml) were added to the samples, which were then stirred vigorously and centrifuged at 830×g for 15 min at 4° C. The lower (organic) phases were collected and upper phases were extracted again with chloroform (2 ml) and combined with the previous extract. Extracts were dried under nitrogen, reconstituted in acetonitrile (0.1 ml), transferred to deactivated glass inserts and placed inside amber glass vials for liquid chromatography/tandem mass spectrometry (LC/MS-MS) analyses.
PEA quantification: PEA was fractionated using a 1260 series LC system (Agilent Technologies, Santa Clara, CA) coupled to a 6460C triple-quadrupole mass spectrometric detector (MSD; Agilent). […] The MSD was operated in the positive electrospray ionization mode, and analytes were quantified by multiple reaction monitoring. […]

naïve animals = assay: Baseline nociceptive thresholds in naïve animals; format: in vivo, mouse; conditions: ARN19702 30 mg-kg^−1 IP, ARN16186 10 mg-kg^−1 IP
[7] = as effectively as does ARN077; cited from earlier work
[8] = pretreatment, ARN16186 10 mg-kg^−1 IP, ARN19702 30 mg-kg^−1 IP, wild-type mice, 1% formalin

With `CCS(=O)(=O)c1ccccc1C(=O)N1CCN(c2nc3ccc(F)cc3s2)C[C@@H]1C` [ARN19702] the “protection from CPLS consolidation” value (formalin-injected mice [1]; ARN19702 30 mg-kg^−1 IP given on PFD1 or PFD5 to PFD9) was “no such effect”, the “protection from CPLS consolidation” value (formalin-injected mice [1]; ARN19702 30 mg-kg^−1 IP given on PFD2) was “partially effective” and the “protection from CPLS consolidation” value (formalin-injected mice [1]; ARN19702 30 mg-kg^−1 IP given once on PFD3 or PFD4) was “full protection”. For the same compound, the “sex dependence of the protective effects (contralateral hyperalgesia in female mice)” value (formalin-injected mice [1]; ARN19702 30 mg-kg^−1 IP once daily PFD1 to PFD3) was “not sex-dependent”, the CPLS consolidation (formalin-injected mice [1]; ARN19702 30 mg-kg^−1 IP once daily for 3 consecutive days starting 24 h after formalin, male mice) was “effectively halted” and the “evoked hypersensitivity (sensory responses)” value (formalin-injected mice [1]; ARN19702 30 mg-kg^−1 IP once daily for 3 days starting 24 h after formalin, male mice) was “normalizing”. The “pain behaviors (acute effect)” value (formalin-injected mice [1]; ARN19702 30 mg-kg^−1 IP, at all time points PFD1 to PFD9) was “temporarily attenuated”, the “transition to CPLS in PPAR-α-null mice” value (formalin-injected mice [1]; ARN19702 30 mg-kg^−1 IP, Ppara^−/− mice, PFD14) was “unaffected” and the “persistent hypersensitivity (CPLS) elicited by formalin” value (formalin-injected mice [1]; post-injury intrathecal infusion, 30 ng, 5 μL, at PFD2 and PFD4, assessed PFD14) was “stopped”. For the same compound, the “NAAA-null phenotype (weakened nocifensive response, no inflammation or persistent hypersensitivity after formalin)” value (formalin-injected mice [1]; pretreatment of wild-type mice, ARN19702 30 mg-kg^−1 IP, ARN16186 10 mg-kg^−1 IP) was “recapitulated”, the “persistent contralateral hyperalgesia (PFD14)” value (formalin-injected mice [1]; [8]) was “prevents” and the “paw edema (PFD14)” value (formalin-injected mice [2]; [8]) was “prevents”. For the same compound, the paw edema (formalin-injected mice [2]; three-day ARN19702 regimen (30 mg-kg^−1 IP) after formalin, PFD14) was “no detectable influence”, the memory deficits (formalin-injected mice [3]) was “normalizing” and the body-weight gain [4] was “normalizing”. The “CPLS-associated changes in spinal and forebrain DTI measures” value (formalin-injected mice [5]) was “reversing”, the “PEA levels in ipsilateral lumbar spinal cord (L4-L6)” value [6] was “normalized” and the baseline nociceptive thresholds (naïve animals) was “Neither compound affected”. The “nociceptive behavior evoked by formalin or CCI” value [7] was “suppresses”.
